Measurements taken from patent US20250352611A1, “METHODS FOR TREATING CATARACTS USING POLYPEPTIDES” (REJUKON BIOPHARM INC., priority 2022, published 2025).

Assays:
[1] = test system: lens of cataract patients; assay: Immersion of intact cataract lens, opacity by daily photographs; set-up: species or system human; conditions: RJK001 0.5 mM in vehicle, 6 days, dark, room temperature
Experimental: Next, we directly immersed the cataract lens removed during the operation in the buffer solution of the control group and the RJK001 protein solution of the experimental group. During the immersion for up to 6 days, the lens of the patient was photographed and recorded every day. More detailed description of the method is: Collect two intact eye lenses from cataract patients. To each tube was added 400 μL solution of vehicle (0.1% NaN3, 0.3% triton X-100, containing 1:1000 protease inhibitor cocktail) or RJK001 (0.5 mM) in vehicle which covered the lens tissue completely. Lens tissue was incubated in these solutions for 6 days in the dark at room temperature. After sealing the 48-well plate with parafilm to avoid liquid evaporation. Observe the state of the lens under the stereoscope every day and take pictures to record.

[2] = test system: crystallin protein aggregates from human cataract patients; assay: Re-dissolution of crystallin aggregates from patients with different degrees of cataract (ThT fluorescence); conditions: LOCS II grades e.g. C1N2P0
Excerpt: DM: diabetes mellitus. lens opacity classification: C: cortex; N: nucleus; P: the posterior lens capsule.
Human lenses used in this study were obtained from unidentified patients undergoing extracapsular cataract surgery. The material had been classified as non-human discarded material. Preoperative clinical exam was used to classify the cataract as mixed cortical and nuclear using LOCS II four-point grading system. LOCS II four-point grading system is also commonly used in clinical settings. (Chylack LT Jr, Leske MC, McCarthy D, Khu P, Kashiwagi T, Sperduto R. Lens opacities classification system II (LOCS II). Arch Ophthalmol. 1989 July; 107(7):991-7. doi: 10.1001/archopht.1989.01070020053028. PMID: 2751471). We tested the crystallin concentrates of patients with different degrees of cataract one by one. […]

[3] = test system: crystallin aggregation from cataract patients; assay: Dissolution of crystallin aggregation in lens lysates from cataract patients; set-up: species or system human
Experimental: 30-50 ml lens lysates after phacoemulsification was collected from cataract patients with different disease progressions. Lanosterol was used as a benchmark medicament (see, Zhao, Ling, et al. “Lanosterol reverses protein aggregation in cataracts.” Nature 523. 7562 (2015): 607-611). […] Moreover, the concentration of the polypeptides provided herein (e.g., RJK001) was as less as 1/100 of the concentration of Lanosterol required to achieve the same dissolving effect.
30-50 ml Phacoemulsification of eye lens was collected from cataract patients with different disease progression. Let Phacoemulsification pass the 3KD protein concentration tube, and centrifuge at 4000 g for 20 minutes. centrifuge at 14000 g for 5 minutes after repeating the previous step to get the concentrate. Concentrate phacoemulsification to 200-300 ul every lens. Add 8 ul phacoemulsification concentrate in the following groups: 1, 8 ul crystalline concentrate; 2, 8 ul 1 mM lanosterol; 3, 8 ul 1 mM short peptide RJK001; 4, 8 ul protein solubilization buffer. Use a 20 ul pipette tip to mix them well, then stand still at RT for 20 min.

[4] = molecular target: T1, γD-crystallin (Homo sapiens, UniProt P07320); assay: γD-crystallin turbidity assay (OD395 nm) at 4° C.; assay type: biochemical; conditions: γD-crystallin 50 mg/ml, RJK001 0-500 uM, 5 min
T1 construct: Wild-type human full-length γD-crystallin gene were inserted into pET14b vectors; made in house; host or cells: E. coli BL21 (DE3)
T1 sequence (P07320 1-174): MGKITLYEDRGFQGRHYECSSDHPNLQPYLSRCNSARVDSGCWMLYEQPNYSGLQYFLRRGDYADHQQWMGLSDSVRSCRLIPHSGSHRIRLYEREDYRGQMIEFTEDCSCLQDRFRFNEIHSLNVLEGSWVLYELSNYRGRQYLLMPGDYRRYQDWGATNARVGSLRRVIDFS
Experimental: The purified γD-crystallin was then dissolved in protein solubilization buffer to a final concentration of 50 mg/ml, Place γD-crystallin at 4° C. for 20 minutes to form a stable biphasic phase, add different concentration of the short peptide RJK001 in Sul γD-crystallin in a volume ratio of 1:1, final concentration of RJK001 from low to high is 0 uM, 20 uM, 50 uM, 100 uM, 150 uM, 200 uM, 250 uM, 300 uM and 500 uM, Use a 10 ul pipette tip to mix them well, then place them at 4° C. for 5 min, absorbance at 395 nm (OD395 nm) was monitored at 4° C. using Nanodrop ONE (Thermo Fisher Scientific, Inc.). […] The turbidity level reflects the degree of phase separation.
For γD-crystallin, γD-crystallin was purified in vitro, then were dissolved in protein solubilization buffer (150 mM NaCl, 50 mM tris-HCl, PH 7.5) to a final concentration of 50 mg/ml, Place γD-crystallin at 4° C. for 20 minutes to induce phase separation.
We followed the Turbidity Assays experiment as previously reported. Briefly, G3BP1 turbidity analysis were at room temperature and γD-crystallin protein was at 4° C. Proteins and Champ-E(RJK001), Champ-K, Champ-D or mutants are mixed at room temperature for 10 minutes prior to turbidity assays. […] Absorbance at 395 nm (OD395 nm) was monitored at room temperature using Nanodrop ONE (Thermo Fisher Scientific, Inc.).

Q: What does the source list for “TEPQEESEEEVEEPEERQQTPEVVPDDSGTFYDQTVSNDLE [RJK001, polypeptide with hydrophilic and hydrophobic segment, expressed in E. coli]”?
A: opacity of the lens [1]: reduced opacity of the lens of cataract patients; depolymerization effect on crystallin concentrates of patients with different degrees of cataract [2]: good depolymerization effects; dissolving crystallin aggregation in lens lysates ([3]; lens lysates after phacoemulsification, RT 20 min): could effectively dissolve the crystallin aggregation from cataract patients; concentration relative to the concentration of Lanosterol required to achieve the same dissolving effect ([3]; lens lysates from cataract patients, Lanosterol as benchmark): 1/100; turbidity of γD-crystallin (OD395 nm) [4]: reduced the turbidity of γD-crystallin in a concentration dependent manner
